Target: T1, human insuline receptor (Ins-R) (Homo sapiens, UniProt P06213)
T1 construct: GST-tagged recombinant kinase domain of the human insuline receptor; GST; purchased ProQinase, Freiburg, Germany; host or cells: SF-9 cells
Experiment: InsR HTRF assay (selectivity vs. Tie2 assay 2)
Assay type: biochemical
Details: IC50 assay 4/IC50 assay 2
Experimental: Inhibitory activity of compounds against the kinase activity of the insulin receptor was quantified employing the Ins-R HTRF assay as described in the following paragraphs.
GST-tagged recombinant kinase domain of the human insuline receptor (Ins-R, purchase from ProQinase, Freiburg, Germany) expressed in SF-9 cells was used as kinase. As substrate for the kinase reaction biotinylated poly-(Glu,Tyr) (Cis biointernational, France) was used.
Ins-R was incubated for 20 min at 22° C. in the presence of different concentrations of test compounds in 5 μl assay buffer [50 mM Hepes/NaOH pH 7, 15 mM MnCl2, 1 mM dithiothreitol, 0.1 μM sodium ortho-vanadate, 0.015% (v/v) PEG20000, 10 μM adenosine-tri-phosphate (ATP), 0.3 μg/ml substrate, 1% (v/v) dimethylsulfoxide]. The concentration of Ins-R was adjusted depending of the activity of the enzyme lot and was chosen appropriate to have the assay in the linear range, typical concentrations were in the range of 10 pg/μL. The reaction was stopped by the addition of 5 μl of a solution of HTRF detection reagents (0.1 μM streptavidine-XLent and 1 nM PT66-Eu-Chelate, an europium-chelate labelled anti-phospho-tyrosine antibody from Perkin Elmer) in an aqueous EDTA-solution (80 mM EDTA, 0.2% (w/v) bovine serum albumin in 50 mM HEPES/NaOH pH 7.0).
The resulting mixture was incubated 1 h at 22° C. to allow the binding of the biotinylated phosphorylated peptide to the streptavidine-XLent and the PT66-Eu-Chelate. Subsequently the amount of phosphorylated substrate was evaluated by measurement of the resonance energy transfer from the PT66-Eu-Chelate to the streptavidine-XLent. Therefore, the fluorescence emissions at 620 nm and 665 nm after excitation at 350 nm was measured in a HTRF reader, e.g. a Rubystar (BMG Labtechnologies, Offenburg, Germany) or a ViewLux (Perkin-Elmer). The ratio of the emissions at 665 nm and at […] was taken as the measure for the amount of phosphorylated substrate. The data were normalised (enzyme reaction without inhibitor=0% inhibition, all other assay components but no enzyme=100% inhibition) and IC50 values were calculated by a 4 parameter fit using an inhouse software.

T1 sequence (P06213 1023-1298 limits assumed): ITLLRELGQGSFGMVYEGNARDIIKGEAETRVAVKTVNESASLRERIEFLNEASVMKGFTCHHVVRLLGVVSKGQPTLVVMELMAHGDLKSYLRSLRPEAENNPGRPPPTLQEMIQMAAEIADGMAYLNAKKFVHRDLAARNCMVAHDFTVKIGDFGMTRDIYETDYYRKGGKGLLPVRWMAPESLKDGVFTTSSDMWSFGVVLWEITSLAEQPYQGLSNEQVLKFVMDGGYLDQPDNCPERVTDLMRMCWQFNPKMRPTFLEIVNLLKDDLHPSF

| SMILES | Selectivity vs. InsR [fold] |
| --- | --- |
| Cn1ncc2c(-c3ccc(NC(=O)Nc4cc(C(F)(F)F)ccc4F)cc3)cncc21 [Example 1.2, 1-(2-Fluoro-5-trifluoromethyl-phenyl)-3-[4-(1-methyl-1H-pyrazolo[3,4-c]pyridin-4-yl)-phenyl]-urea] | >50 |
| Cc1ccc(F)c(NC(=O)Nc2ccc(-c3cncc4c3cnn4C)cc2)c1 [Example 1.3, 1-(2-Fluoro-5-methyl-phenyl)-3-[4-(1-methyl-1H-pyrazolo[3,4-c]pyridin-4-yl)-phenyl]-urea] | >50 |
| Cn1ncc2c(-c3ccc(NC(=O)Nc4cccc(C(F)(F)F)c4)cc3)cncc21 [Example 1.4, 1-[4-(1-Methyl-1H-pyrazolo[3,4-c]pyridin-4-yl)-phenyl]-3-(3-trifluoromethyl-phenyl)-urea] | >50 |
| CCc1cccc(NC(=O)Nc2ccc(-c3cncc4c3cnn4C)cc2)c1 [Example 1.5, 1-(3-Ethyl-phenyl)-3-[4-(1-methyl-1H-pyrazolo[3,4-c]pyridin-4-yl)-phenyl]-urea] | >50 |
| Cn1ncc2c(-c3ccc(NC(=O)Nc4cc(C(F)(F)F)ccn4)cc3)cncc21 [Example 1.9, 1-[4-(1-Methyl-1H-pyrazolo[3,4-c]pyridin-4-yl)-phenyl]-3-(4-trifluoromethyl-pyridin-2-yl)-urea] | >50 |
| Cn1ncc2c(-c3ccc(NC(=O)Nc4cc(C(F)(F)F)ccc4Cl)cc3)cncc21 [Example 1.13, 1-(2-Chloro-5-trifluoromethyl-phenyl)-3-[4-(1-methyl-1H-pyrazolo[3,4-c]pyridin-4-yl)-phenyl]-urea] | >50 |
| Cn1ncc2c(-c3ccc(NC(=O)Nc4cccc(C(F)(F)F)c4)c(F)c3)cncc21 [Example 3.1, 1-[2-Fluoro-4-(1-methyl-1H-pyrazolo[3,4-c]pyridin-4-yl)-phenyl]-3-(3-trifluoromethyl-phenyl)-urea] | >50 |
| Cc1cc(-c2cncc3c2cnn3C)ccc1NC(=O)Nc1cccc(C(F)(F)F)c1 [Example 4.1, 1-[2-Methyl-4-(1-methyl-1H-pyrazolo[3,4-c]pyridin-4-yl)-phenyl]-3-(3-trifluoromethyl-phenyl)-urea] | >50 |
| CN(C(=O)Nc1cccc(C(F)(F)F)c1)c1ccc(-c2cncc3c2cnn3C)cc1 [Example 6.1, 1-Methyl-1-[4-(1-methyl-1H-pyrazolo[3,4-c]pyridin-4-yl)-phenyl]-3-(3-trifluoromethyl-phenyl)-urea] | >25 |
| Cn1ncc2c(-c3ccc(NC(=O)Nc4cc(C(F)(F)F)ccc4F)c(F)c3)cncc21 [Example 6.3, 1-[2-Fluoro-4-(1-methyl-1H-pyrazolo[3,4-c]pyridin-4-yl)-phenyl]-3-(2-fluoro-5-trifluoromethyl-phenyl)-urea] | >50 |
| CN1CCN(Cc2ccc(NC(=O)Nc3ccc(-c4cncc5c4cnn5C)cc3)cc2C(F)(F)F)CC1 [Example 6.4, 1-[4-(4-Methyl-piperazin-1-ylmethyl)-3-trifluoromethyl-phenyl]-3-[4-(1-methyl-1H-pyrazolo[3,4-c]pyridin-4-yl)-phenyl]-urea] | >50 |
| O=C(Nc1ccc(-c2cncc3c2cnn3CCO)cc1F)Nc1cc(C(F)(F)F)ccc1F [Example 8.1, 1-{2-Fluoro-4-[1-(2-hydroxy-ethyl)-1H-pyrazolo[3,4-c]pyridin-4-yl]-phenyl}-3-(2-fluoro-5-trifluoromethyl-phenyl)-urea] | >50 |
| O=C(Nc1ccc(-c2cncc3c2cnn3CCO)cc1)Nc1cc(C(F)(F)F)ccc1F [Example 8.2, 1-(2-Fluoro-5-trifluoromethyl-phenyl)-3-{4-[1-(2-hydroxy-ethyl)-1H-pyrazolo[3,4-c]pyridin-4-yl]-phenyl}-urea] | >50 |
| O=C(Nc1cccc(C(F)(F)F)c1)Nc1ccc(-c2cncc3c2cnn3CCO)cc1F [Example 8.5, 1-{2-Fluoro-4-[1-(2-hydroxy-ethyl)-1H-pyrazolo[3,4-c]pyridin-4-yl]-phenyl}-3-(3-trifluoromethyl-phenyl)-urea] | >50 |
| CN1CCN(Cc2ccc(NC(=O)Nc3ccc(-c4cncc5c4cnn5CCO)cc3)cc2C(F)(F)F)CC1 [Example 8.6, 1-{4-[1-(2-Hydroxy-ethyl)-1H-pyrazolo[3,4-c]pyridin-4-yl]-phenyl}-3-[4-(4-methyl-piperazin-1-ylmethyl)-3-trifluoromethyl-phenyl]-urea] | >50 |
| CCn1ncc2c(-c3ccc(NC(=O)Nc4cc(C(F)(F)F)ccc4F)cc3)cncc21 [Example 10.5, 1-[4-(1-Ethyl-1H-pyrazolo[3,4-c]pyridin-4-yl)-phenyl]3-(2-fluoro-5-trifluoromethyl-phenyl)-urea] | >50 |
| CCn1ncc2c(-c3ccc(NC(=O)Nc4cccc(C(F)(F)F)c4)c(F)c3)cncc21 [Example 11.1, 1-[4-(1-Ethyl-1H-pyrazolo[3,4-c]pyridin-4-yl)-2-fluoro-phenyl]-3-(3-trifluoromethyl-phenyl)-urea] | >50 |
| CCn1ncc2c(-c3ccc(NC(=O)Nc4cc(C(F)(F)F)ccc4F)c(F)c3)cncc21 [Example 11.2, 1-[4-(1-Ethyl-1H-pyrazolo[3,4-c]pyridin-4-yl)-2-fluoro-phenyl]-3-(2-fluoro-5-trifluoromethyl-phenyl)-urea] | >50 |
| CCn1ncc2c(-c3ccc(NC(=O)Nc4cc(C)ccc4F)c(F)c3)cncc21 [Example 11.3, 1-[4-(1-Ethyl-1H-pyrazolo[3,4-c]pyridin-4-yl)-2-fluoro-phenyl]-3-(2-fluoro-5-methyl-phenyl)-urea] | >50 |
| COCCn1ncc2c(-c3ccc(NC(=O)Nc4cccc(C(F)(F)F)c4)cc3)cncc21 [Example 12.1, 1-{4-[1-(2-Methoxy-ethyl)-1H-pyrazolo[3,4-c]pyridin-4-yl]-phenyl}-3-(3-trifluoromethyl-phenyl)-urea] | >50 |
| COCCn1ncc2c(-c3ccc(NC(=O)Nc4cc(C)ccc4F)cc3)cncc21 [Example 12.3, 1-(2-Fluoro-5-methyl-phenyl)-3-{4-[1-(2-methoxy-ethyl)-1H-pyrazolo[3,4-c]pyridin-4-yl]-phenyl}-urea] | >50 |
| COCCn1ncc2c(-c3ccc(NC(=O)Nc4cccc(C(F)(F)F)c4)c(F)c3)cncc21 [Example 12.4, 1-{2-Fluoro-4-[1-(2-methoxy-ethyl)-1H-pyrazolo[3,4-c]pyridin-4-yl]-phenyl}-3-(3-trifluoromethyl-phenyl)-urea] | >50 |
| COCCn1ncc2c(-c3ccc(NC(=O)Nc4cc(C(F)(F)F)ccc4F)c(F)c3)cncc21 [Example 12.5, 1-{2-Fluoro-4-[1-(2-methoxy-ethyl)-1H-pyrazolo[3,4-c]pyridin-4-yl]-phenyl}-3-(2-fluoro-5-trifluoromethyl-phenyl)-urea] | >50 |
| Cn1ncc2c(-c3ccc(NC(=O)Nc4cc(C(C)(C)C)on4)cc3)cncc21 [Example 13.2, 1-(5-tert-Butyl-isoxazol-3-yl)-3-[4-(1-methyl-1H-pyrazolo[3,4-c]pyridin-4-yl)-phenyl]-urea] | >50 |
| Cn1ncc2c(-c3ccc(NC(=O)Nc4cc(C(C)(C)C)nn4-c4ccccc4)cc3)cncc21 [Example 13.4, 1-(5-tert-Butyl-2-phenyl-2H-pyrazol-3-yl)-13-[4-(1-methyl-1H-pyrazolo[3,4-c]pyridin-4-yl)-phenyl]-urea] | >50 |
| CN1CCN(Cc2ccc(NC(=O)Nc3ccc(-c4cncc5c4cnn5C)cc3F)cc2C(F)(F)F)CC1 [Example 13.6, 1-[2-Fluoro-4-(1-methyl-1H-pyrazolo[3,4-c]pyridin-4-yl)-phenyl]-3-[4-(4-methyl-piperazin-1-ylmethyl)-3-trifluoromethyl-phenyl]-urea] | >50 |
| CN(C)c1ccc(C(F)(F)F)cc1NC(=O)Nc1ccc(-c2cncc3c2cnn3C)cc1 [Example 13.11, 1-(2-Dimethylamino-5-trifluoromethyl-phenyl)-3-[4-(1-methyl-1H-pyrazolo[3,4-c]pyridin-4-yl)-phenyl]-urea] | >50 |
| CN(C)C1CCN(c2ccc(C(F)(F)F)cc2NC(=O)Nc2ccc(-c3cncc4c3cnn4C)cc2)C1 (stereo not shown) [Example 13.12, 1-[2-(3-Dimethylamino-pyrrolidin-1-yl)-5-trifluoromethyl-phenyl]-3-[4-(1-methyl-1H-pyrazolo[3,4-c]pyridin-4-yl)-phenyl]-urea] | >50 |

Reference: patent US20090062273A1, “3-H-pyrazolopyridines and salts thereof, pharmaceutical compositions comprising same, methods of preparing same and uses of same” (priority 2006, published 2009)
